Here are results for 40 compounds from patent US7214691B2, “2-substituted benzimidazole derivatives as selective melanin concentrating hormone receptor antagonists for the treatment of obesity and related disorders” (Schering Corporation, priority 2003, dated 2007).

In the first experiment the target is T1, MCH receptor (Homo sapiens, UniProt Q99705).
T1 construct: expressed in transfected cells; host or cells: CHO cells
T1 sequence (Q99705 whole entry): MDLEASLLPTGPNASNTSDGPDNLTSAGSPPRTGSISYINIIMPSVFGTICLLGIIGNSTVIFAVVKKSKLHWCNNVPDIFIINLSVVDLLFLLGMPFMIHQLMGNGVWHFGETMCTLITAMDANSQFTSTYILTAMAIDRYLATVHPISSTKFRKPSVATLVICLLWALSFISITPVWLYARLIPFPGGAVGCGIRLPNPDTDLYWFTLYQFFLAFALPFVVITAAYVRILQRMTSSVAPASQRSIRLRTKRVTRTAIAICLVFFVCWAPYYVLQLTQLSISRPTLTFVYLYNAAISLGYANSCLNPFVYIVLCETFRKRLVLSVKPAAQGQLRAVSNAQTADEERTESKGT
Kind of experiment: MCH Receptor Binding Assay. The following applies: membranes from CHO cells expressing the MCH receptor, [125I]-MCH, SPA; class symbols; read-out: MCH Ki. Here is the method:
MCH Receptor Binding Assay: Membranes from CHO cells expressing the MCH receptor were prepared by lysing cells with 5 mM HEPES for 15 min at 4 C. Cell lysates were centrifuged ([…], 15 min) and the pellet was resuspended in 5 mM HEPES. For each 96-well plate (Microlite, Dynex Technologies), 1 mg of cell membranes were incubated with 10 mg of wheat germ agglutinin SPA beads (Amersham) for 5 min at 4 C in a volume of 10 ml of binding buffer (25 mM HEPES, 10 mM MGCl2, 10 mM NaCl, 5 mM MnCl2, 0.1% BSA). The membrane/bead mixture was centrifuged (1500×g, 3.5 min), the supernatant was aspirated, and the pellet was resuspended in 10 ml binding buffer. The centrifugation, aspiration and resuspension were then repeated. The membrane/bead mixture (100 μl) was then added to 96-well plates containing 50 μl of 500 pM [^125I]-MCH (NEN) and […] of the appropriate concentration of compound (4× the desired final concentration). Nonspecific binding was determined by including 1 μM MCH in the binding reaction. The binding reaction was incubated at room temperature for 2 h. Plates were then analyzed in a TOPCOUNT microplate scintillation counter (Packard). Data was analyzed and Ki values were determined using GraphPad Prism.
In the case of `N#Cc1cccc(-c2ccc(C(=C3CCN(CC4CC4)CC3)c3nc4cc(Cl)cc(Cl)c4[nH]3)cc2)c1` [Compound 1u], the inhibition constant Ki lay in the range of 50 to 100 nM.
Turning to `CC(C)S(=O)(=O)N1CCC2(CC1)CC2(c1ccc(-c2cccc(C#N)c2)cc1)c1nc2cc(F)c(C(F)(F)F)cc2[nH]1` (centres unmarked) [Compound 26a], the inhibitory constant (Ki) lay within 50 to 100 nM.
On the same count and under the same terms, the figure for `N#Cc1cccc(-c2ccc(C(=C3CCN(Cc4ccccc4)CC3)c3nc4cc(F)c(Cl)cc4[nH]3)cc2)c1` [Compound 1b] is below 20 nM; for `N#Cc1cccc(-c2ccc(C(=C3CCN(C4CCCC4)CC3)c3nc4cc(Cl)c(Cl)cc4[nH]3)cc2)c1` [Compound 1f] it is below 20 nM; for `N#Cc1ccc(-c2ccc(C(=C3CCN(CC4CC4)CC3)c3nc4cc(Cl)c(Cl)cc4[nH]3)cc2)cc1` [Compound 1i] it is above 100 nM.
As for `CN(C)Cc1cccc(-c2ccc(C(=C3CCN(CC4CC4)CC3)c3nc4cc(Cl)c(Cl)cc4[nH]3)cc2)c1` [Compound 1l], the Ki was in the range of 20 to 50 nM.
On the same count and under the same terms, the figure for `N#Cc1cccc(-c2ccc(C(=C3CCN(CC(=O)O)CC3)c3nc4cc(F)c(C(F)(F)F)cc4[nH]3)cc2)c1` [Compound 1z] is below 20 nM; for `N#Cc1cccc(-c2ccc(C3(c4nc5cc(Cl)c(Cl)cc5[nH]4)CC34CCN(CC3CC3)CC4)cc2)c1` (centres unmarked) [Compound 25b] it is below 20 nM; for `N#Cc1cccc(-c2ccc(C3(c4nc5cc(F)c(C(F)(F)F)cc5[nH]4)CC34CCN(c3nccs3)CC4)cc2)c1` (centres unmarked) [Compound 29a] it is above 100 nM.
Still for that read-out and setting: the figure for `CN1CCC(=C(c2ccc(-c3cccc(C#N)c3)cc2)c2nc3cc(Cl)c(Cl)cc3[nH]2)CC1` [Compound 1e] is 20 to 50 nM; for `Fc1cc(F)cc(-c2ccc(C(=C3CCN(CC4CC4)CC3)c3nc4cc(Cl)c(Cl)cc4[nH]3)cc2)c1` [Compound 1h] it is above 100 nM; for `N#Cc1cccc(-c2ccc(C(=C3CCN(Cc4ccccc4)CC3)c3nc4cc(F)ccc4[nH]3)cc2)c1` [Compound 1a] it is above 100 nM.
Turning to `N#Cc1cccc(-c2ccc(C3(c4nc5cc(Cl)c(Cl)cc5[nH]4)CC34CCN(Cc3ccccc3)CC4)cc2)c1` (centres unmarked) [Compound 23c], the Ki is below 20 nM.
`N#Cc1cccc(-c2ccc(C(=C3CCN(CC4CC4)CC3)c3nc4cc(F)c(F)cc4[nH]3)cc2)c1` [Compound 1q]: the inhibition constant (Ki) was in the range of 50 to 100 nM.
As for `CC(C)(C)OC(=O)N1CCC2(CC1)CC2(c1ccc(-c2cccc(C#N)c2)cc1)c1nc2cc(Cl)c(Cl)cc2[nH]1` (centres unmarked) [Compound 23b], the inhibition constant (Ki) was above 100 nM.
Take `CC(C)(C)OC(=O)N1CCC(=C(c2ccc(-c3cccc(C#N)c3)cc2)c2nc3cc(F)c(F)cc3[nH]2)CC1` [Compound 1n]: the Ki is above 100 nM.
As for `N#Cc1cccc(-c2ccc(C(=C3CCNCC3)c3nc4cc(F)c(F)cc4[nH]3)cc2)c1` [Compound 1o], the inhibition constant (Ki) is 50 to 100 nM.
As for `N#Cc1cccc(-c2ccc(C(=C3CCN(CC4CC4)CC3)c3nc4cc(Cl)c(Cl)cc4[nH]3)cc2)c1` [Compound 1d], the inhibition constant (Ki) is below 20 nM.
Still for that read-out and setting: the figure for `N#Cc1cccc(-c2ccc(C(=C3CCNCC3)c3nc4c(Cl)cc(Cl)cc4[nH]3)cc2)c1` [Compound 1t] is above 100 nM; for `CN(C)C(=O)N1CCC2(CC1)CC2(c1ccc(-c2cccc(C#N)c2)cc1)c1nc2cc(F)c(C(F)(F)F)cc2[nH]1` (centres unmarked) [Compound 27a] it is 20 to 50 nM; for `CCN(CC)C(=O)N1CCC(=C(c2ccc(-c3cccc(C#N)c3)cc2)c2nc3cc(F)c(C(F)(F)F)cc3[nH]2)CC1` [Compound 1x] it is 20 to 50 nM.
As to `COc1cc(C(=C2CCNCC2)c2nc3cc(F)c(C(F)(F)F)cc3[nH]2)ccc1-c1cccc(C#N)c1` [Compound 1ab], the inhibition constant Ki was above 100 nM.
The same measure, in the same setting: in the case of `Clc1cc2nc(C(=C3CCN(CC4CC4)CC3)c3ccc(-c4cccnc4)cc3)[nH]c2cc1Cl` [Compound 1j] it was 50 to 100 nM.
On to `CN1CCC(=C(c2ccc(-c3cccc(C#N)c3)cc2)c2nc3cc(F)c(F)cc3[nH]2)CC1` [Compound 1p], for which the Ki was above 100 nM.
On the same count and under the same terms, the figure for `N#Cc1cccc(-c2ccc(C3(c4nc5cc(F)c(C(F)(F)F)cc5[nH]4)CC34CCN(c3nc5ccc(Cl)cc5s3)CC4)cc2)c1` (centres unmarked) [Compound 29b] is above 100 nM; for `N#Cc1cccc(-c2ccc(C(=C3CCNCC3)c3nc4cc(Cl)c(Cl)cc4[nH]3)cc2)c1` [Compound 1c] it is below 20 nM; for `Clc1cc2nc(C(=C3CCN(CC4CC4)CC3)c3ccc(-c4cccc(CN5CCC5)c4)cc3)[nH]c2cc1Cl` [Compound 1m] it is 50 to 100 nM.
Take `N#Cc1cccc(-c2ccc(C3(c4nc5cc(Cl)c(Cl)cc5[nH]4)CC34CCNCC4)cc2)c1` (centres unmarked) [Compound 24b]: the Ki is below 20 nM.
With `N#Cc1cccc(-c2ccc(C3(c4nc5cc(F)c(C(F)(F)F)cc5[nH]4)CC34CCN(CC(=O)O)CC4)cc2)c1` (centres unmarked) [Compound 28a], the Ki was 20 to 50 nM.
As for `N#Cc1cccc(-c2ccc(C(=C3CCNCC3)c3nc4cc(C(F)(F)F)c(F)cc4[nH]3)cc2)c1` [Compound 1r], the Ki is below 20 nM.
As to `CN(C)C(=O)N1CCC(=C(c2ccc(-c3cccc(C#N)c3)cc2)c2nc3cc(F)c(C(F)(F)F)cc3[nH]2)CC1` [Compound 1y], the Ki lay within 20 to 50 nM.
On to `CCN(CC)C(=O)N1CCC2(CC1)CC2(c1ccc(-c2cccc(C#N)c2)cc1)c1nc2cc(F)c(C(F)(F)F)cc2[nH]1` (centres unmarked) [Compound 27c], for which the Ki is above 100 nM.
As for `O=Cc1cccc(-c2ccc(C(=C3CCN(CC4CC4)CC3)c3nc4cc(Cl)c(Cl)cc4[nH]3)cc2)c1` [Compound 1k], the inhibition constant (Ki) is 20 to 50 nM.
Take `N#Cc1cccc(-c2ccc(C3(c4nc5cc(F)c(C(F)(F)F)cc5[nH]4)CC34CCN(c3nc5ccccc5s3)CC4)cc2)c1` (centres unmarked) [Compound 29c]: the inhibition constant (Ki) was above 100 nM.
Turning to `CC(C)S(=O)(=O)N1CCC2(CC1)CC2(c1ccc(-c2cccc(C#N)c2)cc1)c1nc2cc(Cl)c(Cl)cc2[nH]1` (centres unmarked) [Compound 26b], the inhibition constant Ki was above 100 nM.
Take `CC(C)(C)OC(=O)N1CCC2(CC1)CC2(c1ccc(-c2cccc(C#N)c2)cc1)c1nc2cc(F)c(C(F)(F)F)cc2[nH]1` (centres unmarked) [Compound 23a]: the Ki is above 100 nM.
`N#Cc1cccc(-c2ccc(C3(c4nc5cc(F)c(C(F)(F)F)cc5[nH]4)CC34CCNCC4)cc2)c1` (centres unmarked) [Compound 24a]: the Ki is below 20 nM.
With `CS(=O)(=O)N1CCC(=C(c2ccc(-c3cccc(C#N)c3)cc2)c2nc3cc(F)c(C(F)(F)F)cc3[nH]2)CC1` [Compound 1v], the inhibition constant Ki lay in the range of 50 to 100 nM.
The same measure, in the same setting: the figure for `CS(=O)(=O)N1CCC(=C(c2ccc(-c3cccc(C#N)c3)cc2)c2nc3cc(Cl)c(Cl)cc3[nH]2)CC1` [Compound 1g] is 50 to 100 nM; for `COc1cc(C(=C2CCN(CC3CC3)CC2)c2nc3cc(F)c(C(F)(F)F)cc3[nH]2)ccc1-c1cccc(C#N)c1` [Compound 1aa] it is above 100 nM.

Staying with this experiment, now noted: membranes from CHO cells expressing the MCH receptor, [125I]-MCH, SPA; numeric value in text; read-out: Ki value.
Consider `N#Cc1cccc(-c2ccc(C3(c4nc5cc(F)c(C(F)(F)F)cc5[nH]4)CC34CCNCC4)cc2)c1` (centres unmarked) [Compound 24a], for which the Ki is 1.7 nM.
